Experimental data: patent US8110569B2, “Enantiomerically pure S-etifoxine, pharmaceutical compositions thereof and methods of their use” (The Regents of the University of California, priority 2006, dated 2012)

How the values were obtained:
[1] = test system: α1β1-3γ2L GABAA receptors; experiment: Modulation of GABA-evoked currents in Xenopus oocytes (2-electrode voltage clamp), GABA subunit selectivity; type: cell-based; conditions: human GABAA receptor subunits expressed in Xenopus oocytes; for GABA subunit selectivity: GABA EC10 control currents, FIGS. 4A and 4B
Protocol: GABA subunit selectivity of etifoxine enantiomers was measured based on their ability to modulate the GABA-evoked currents in Xenopus oocytes.
Receptor mRNA preparation: cDNA clones encoding human GABAA receptor subunits were obtained from commercial sources. mRNA was prepared using conventional techniques with commercially-available “mMessage machine” kits (Ambion). Individual mRNAs (˜1 μg/μL) were stored in aliquots at −80° C.
mRNA injections into Xenopus oocytes: Preparation and micro-injection of oocytes were performed as reported in detail previously (see, Whittemore et al., 1996, Mol Pharmacol 50: 1364-1375). Individual oocytes were injected with 5-50 ng of mRNA at 5:1:1 (GABA). For example, individual oocytes were injected with a 5:1:1 mixture of α1, β1-3, and γ2L (˜5-50 ng of each subunit per cell) to produce expression of α1β1-3γ2L GABAA receptors. Following injections, oocytes were maintained at 16-17° C. in Barth's medium containing (in mM): NaCl, 88; KCl, 1; CaCl2, 0.41; Ca(NO3)2, 0.33; MgSO4, 0.82; NaHCO3, 2.4; HEPES 5; pH=7.4, with 0.1 mg/ml gentamycin sulfate.
Oocyte Electrophysiological recordings: Individual oocytes were placed on a nylon mesh in a 35 mm dish, perfused with frog Ringer (see, Whittemore et al., supra), and voltage clamped at a holding potential of −70 mV. In some cases, simple voltage steps were made to test voltage-dependence. Oocytes were perfused with fresh Ringer or exposed to GABA ±modulators using a custom-made gravity-driven perfusion system consisting of a linear array of 3 capillary tubes. The concentration of GABA used to evoke control currents was adjusted for each individual oocyte to be ˜10% of the maximal current (EC10) measured in that cell. The concentration of GABA required to evoke EC10 ‘control’ currents varied between ˜2 and 12 μM. […] Data are expressed as % of control currents (% modulation=100*[(modulated current/GABA control current)−1].

[2] = test system: mouse formalin pain model; experiment: Mouse formalin test, late phase licking (analgesic effect); type: in vivo; conditions: 3 mg/kg i.p., 30 minutes prior to formalin; male NSA mice; FIG. 5
Protocol: The analgesic effect of test compounds was assessed in a mouse formalin pain model (Hole et al., 1993, Pain 53:247-254). Male NSA mice weighing between 27 and 30 g were housed with access to food and water ad libitum until the test date. On the day of testing, they were given a period of 1 h to adjust to the test chamber. Test compounds or vehicle control (75% polyethylene glycol in 5% dextrose+water) were administered i.p. at 30 minutes prior to the administration of formalin. A solution of 20 μl of 2.5% formalin was then injected subcutaneously into the dorsal side of the hind paw of the test mouse. Immediately following formalin injection, the mice were observed over the next 50 min and the time spent licking the injected hind paw was recorded. The observation time was broken down into 5 minute “bins”, with 10 bins in total. The first 5-min bin is the early phase, considered to be reflective of acute pain. Bins three to ten make up the late phase, considered a measure of chronic inflammatory pain. The results for the late phase are expressed as the averaged mean time (in seconds) that mice spent licking in a 5-min period.
Dose-response relationship was conducted in the range of 3 to 60 mg/kg. Statistical differences in response were determined by one-way analysis of variance with the Dunnett's post-hoc test by using the Prism3 statistical software (GraphPad, Inc., San Diego, Calif.).

[3] = In vivo racemization study, plasma enantiomers by chiral LC-MS/MS; set-up: species or system mouse; conditions: 30 mg/kg perorally, NSA mice, plasma 30 minutes post dose; FIG. 6A
Protocol: Pure S-etifoxine was administered at 30 mg/kg, perorally, to NSA mice. The desired enantiomer was dissolved in PEG at a concentration of 15 mg/mL and a dose of 2 mL/kg was administered perorally to overnight fasted mice. Plasma concentration of etifoxine enantiomers was determined by LC-MS/MS analysis.
A mixture of 100 μL plasma and 200 μL water in a 6-mL plastic culture tube was vortexed briefly, for about 10 seconds. To this was added 1.5 mL methyl tert-butyl ether and 1.5 mL hexane and vortexed briefly for about 10 seconds. The mixture was centrifuged for about 10 minutes and frozen at −80° C. for 10 minutes. The organic layer was collected and dried under nitrogen at 37° C. The solid was resuspended in 250 μL methanol, vortexed and transferred to 96-well plate.
The samples were analyzed by LC-MS/MS on a […] CHIRALCEL® OD (lot #OD00CE-FJ033) column at room temperature. A mixture of 75% hexane, 25% isopropyl alcohol and 0.05% […] was used as an isocratic mobile phase. The flow rate was set at 1 mL/min at room temperature. Racemic etifoxine spiked into plasma was used as a reference standard. FIGS. 6A and 6B provide representative chromatograms of extracted plasma sample (pure S-etifoxine, dosed at 30 mg/kg/po at 30 minutes post dose) and racemic standard spiked into plasma (100 ng/mL), respectively. […]

CCN=C1Nc2ccc(Cl)cc2[C@@](C)(c2ccccc2)O1 [R-etifoxine]
GABA subunit selectivity [1]: little or no GABA subunit selectivity

CCNC1=Nc2ccc(Cl)cc2C(C)(c2ccccc2)O1 (centres unmarked) [S-etifoxine]
selectivity between β2 and β1 subunit ([1]; FIG. 4B): more selective for β2 subunit than β1 subunit | GABA subunit selectivity [1]: shows selectivity for GABA receptor comprising β subunit | activity in the formalin test (late phase licking) [2]: active | racemization in vivo (R-etifoxine in plasma) [3]: little or no racemization in vivo
